We go through 13 molecules from patent publication US7332495B2 (priority 2002, dated 2008).

In data set [1] the test system is Kunming mice. Nature of the data set: Mice writhing model (acetic acid). In kind it is in vivo. As to conditions: for inhibition in vivo at 20 mg/kg: ip, i.p. 20 mg/Kg, acetic acid 0.7% i.p. after 30 minutes, writhes in 5 minutes, read-out: Analgesia (inhibition ratio of writhing); for Writhing (K i): 20 mg/kg, Table 5 summary. The method, then: Kunming mice were used, with a male-female ratio of 50-50%. The test compound is administered i.p. (20 mg/Kg body weight) to the test groups, and physiological saline is administered P.O. (20 ml/Kg body weight) to the control group. After 30 minutes, acetic acid (0.7%, […] i.p.) was injected and the number of writhes was observed during a 5-minute period after acetic acid administration. The inhibition ratio of the writhing threshold was calculated. The alternating current tube is used to record the spontaneous activities for measuring sedation.
(§1) Two species of animals (mice and rats) and four types of pain testing models (i.p. 0.7% acetic acid, s.c. 5% formalin, hot plate 55° C., focused radiant heat) were used.

Data set [2] relates to Kunming mice. The data set can be described thus: Sedation: spontaneous activities recorded with alternating current tube. As to conditions: for inhibition in vivo at 20 mg/kg: Mus musculus, ip, i.p. 20 mg/Kg, spontaneous activities; for Sedation (writhing model): 20 mg/kg, Table 5 summary. The class given is in vivo. As for the experimental part:
Kunming mice were used, with a male-female ratio of 50-50%. […] After 30 minutes, acetic acid (0.7%, […] i.p.) was injected and the number of writhes was observed during a 5-minute period after acetic acid administration. The inhibition ratio of the writhing threshold was calculated. The alternating current tube is used to record the spontaneous activities for measuring sedation.

The subject of data set [3] is rat. The data set can be described thus: animal or person. Conditions: for responders at 20 mg/kg: ip; for Increase (hot plate) (%): 20 mg/kg, Table 5 summary. The method, then:
Using 55° C. hot plate pain threshold detector (available from Ninghai Baishi Electronic Medical Instrument Co., Zheijiang, China) the threshold change before and after administration of a pharmaceutical composition of the present invention is tested. […] hind paw was scrubbed with alcohol cotton ball before the experiment. The regular pain threshold was tested twice for each rat, the induced hind paw licking time being recorded as the pain threshold. Measurements were made at 20-30 minute intervals. Only rats with stable pain reaction were used in the pharmaceutical test.
as §1

Data set [4] concerns rat. Nature of the data set: Rat tail flick model (focused radiant heat). The class given is in vivo. As to conditions: for change in vivo at 20 mg/kg: Rattus norvegicus, po, read-out: increase (%) of tail flick time; for change in vivo at 20 mg/kg / After (s) tail flick time: orally 20 mg/kg; for After (s) tail flick time: 30-45 minutes after administration; for Increase (tail flick) (%): 20 mg/kg, Table 5 summary. As for the experimental part:
A 8.75 mm-projecting lamp (12 v, 50 w) was used to give out focused radiant heat. The terminal 3 cm of the tail is exposed to the heat. The intensity of the focused radiant heat is regulated by a transformer to ensure that the time required to elicit a tail flick response is within 3-5 seconds. The rat's pain threshold is pre-tested for 2-3 times; and only animals with stable reactions were used in the pharmaceutical test. The test substance is taken orally 20 mg/kg. The number of rats whose increase in time for eliciting a tail flick response is by 100% or more at the peak of the drug action (30-45 minutes after administration) is used to calculate analgesic effect.
as §1

A short description of data set [5]: Summary of all three algogenic models. In kind it is in vivo. Conditions: in words. From the text: All the compounds mentioned above have profound for further value development.
Data set [6] has as its system rat. The data set can be described thus: Rat tail flick model (focused radiant heat). Conditions: po, read-out: Analgesia ED50. In kind it is in vivo.
Where [7] appears, read: Rattus norvegicus, read-out: Analgesic ratio (Increase by 100%).
Setting [8] is: Rattus norvegicus, read-out: Analgesic ratio (More than 60 seconds).

Where a name gives a salt, the structure may show the parent alone. Read-outs that look alike come from different tables or passages of the source.

For the molecule `C[C@H](c1ccccc1)N1CCN(CC(=O)c2ccccc2)CC1` (as salt: hydrochloride) [IV-38, N^1—(R-1-phenylethyl)-N^4-phenacyl piperazine], the melting point fell in the range of 230 to 232 °C.

In the case of `Cc1ccc(C(=O)CN2CCN(C(C)c3ccccc3)CC2)cc1` (centres unmarked) (as salt: hydrochloride) [IV-40, N^1-(1-phenylethyl)-N^4-(4-methylphenacyl)piperazine], the melting point is 230 to 232 °C.

With `Cc1ccc(C(=O)CN2CCN([C@H](C)c3ccccc3)CC2)cc1` (as salt: hydrochloride) [IV-41, N^1—(R-1-phenylethyl)-N^4-(4-methylphenacyl)piperazine], the melting point fell in the range of 231 to 232 °C.

On to `COc1ccc2cc(C(=O)C(C)N3CCN(C(C)c4ccccc4)CC3)ccc2c1Cl` (centres unmarked) (as salt: hydrochloride) [IV-43, N^1-(1-phenylethyl)-N^4-[1-(5-chloro-6-methoxy-2-naphthoyl)ethyl]piperazine], for which the melting point fell in the range of 231 to 232 °C.

For the molecule `COc1ccc(CN2CCN(CC(=O)c3ccccc3)CC2)cc1` [IV-10, N^1-(4-methoxybenzyl)-N^4-phenacyl piperazine], the figures for the inhibition in vivo at 20 mg/kg with Kunming mice [1] (Mus musculus) and in the data set on Kunming mice [2] were 100% and 99%, respectively. Further, the responders at 20 mg/kg in the data set on rat [3] (setting [7]) worked out at 90%; in the data set on rat [3] (setting [8]) it was 70%. Besides, the change in vivo at 20 mg/kg with rat [4] amounted to 9.4%. Also, the “After (s) tail flick time” value in the data set with rat [4] worked out at 8.81 s.

On to `O=C(CN1CCN(CCc2ccccc2)CC1)c1ccccc1` [IV-14, N^1-phenethyl-N^4-phenacyl piperazine], for which the “Writhing (K i)” value in the data set with Kunming mice [1] turned out to be 94. Besides, the inhibition in vivo at 20 mg/kg in the data set on Kunming mice [1] (Mus musculus) is 94%. Besides, in the data set with Kunming mice [2], the “Sedation (writhing model)” value is recorded as 92 and the inhibition in vivo at 20 mg/kg was 92%. Moreover, the “Increase (hot plate) (%)” value in the data set with rat [3] was 100%. Moreover, in the data set on rat [3] (setting [7]), the responders at 20 mg/kg stood at 100%. In addition, in the data set on rat [3] (setting [8]), the responders at 20 mg/kg was found to be 70%. Also, in the data set on rat [4], the “Increase (tail flick) (%)” value was found to be 37.9%, the change in vivo at 20 mg/kg worked out at 37.9% and the “After (s) tail flick time” value came out at 10.62 s. For the same molecule, in data set [5], the “Analgesic effect on all three algogenic models” value is on record as “powerful analgesic effects” and the “Sedative effect on all three algogenic models” value was “rather significant sedative effect”.

`O=C(CN1CCN(Cc2ccc3c(c2)OCO3)CC1)c1ccccc1` [IV-19, N^1-(3,4-methylenedioxybenzyl)-N^4-phenacyl piperazine]: the inhibition in vivo at 20 mg/kg in the data set with Kunming mice [1] (Mus musculus) was found to be 97%; in the data set with Kunming mice [2] it was 93%. Also, the responders at 20 mg/kg in the data set with rat [3] (setting [7]) was found to be 70%; with rat [3] (setting [8]), 50%. For the same molecule, the change in vivo at 20 mg/kg with rat [4] was 6.7%. Moreover, the “After (s) tail flick time” value in the data set with rat [4] was determined as 8.58 s.

For `CC(=O)Nc1ccc(CN2CCN(CC(=O)c3ccccc3)CC2)cc1` [IV-21, N^1-(4-acetamidobenzyl)-N^4-phenacyl piperazine], the “Writhing (K i)” value in the data set on Kunming mice [1] worked out at 100. Further, the inhibition in vivo at 20 mg/kg in the data set with Kunming mice [1] (Mus musculus) came out at 100%. For the same molecule, in the data set with Kunming mice [2], the “Sedation (writhing model)” value was determined as 92 and the inhibition in vivo at 20 mg/kg was found to be 92%. In addition, the “Increase (hot plate) (%)” value with rat [3] is listed as 100%. The responders at 20 mg/kg with rat [3] (setting [7]) was 100%. Also, in the data set on rat [3] (setting [8]), the responders at 20 mg/kg was determined as 50%. Further, in the data set with rat [4], the “Increase (tail flick) (%)” value is recorded as 28%, the change in vivo at 20 mg/kg is 28% and the “After (s) tail flick time” value is listed as 9.72 s.

In the case of `COc1cccc(CN2CCN(CC(=O)c3ccccc3)CC2)c1` [IV-25, N^1-(3-methoxybenzyl)-N^4-phenacyl piperazine], the inhibition in vivo at 20 mg/kg with Kunming mice [1] (Mus musculus) turned out to be 100%; with Kunming mice [2], 88%. Further, the responders at 20 mg/kg in the data set on rat [3] (setting [7]) was found to be 40%; in the data set on rat [3] (setting [8]) it was 10%. In the data set on rat [4], the change in vivo at 20 mg/kg was found to be 12%. The “After (s) tail flick time” value with rat [4] stood at 8.37 s.

On to `Cc1ccc(C(=O)CN2CCN(C(C)c3ccc([N+](=O)[O-])cc3)CC2)cc1` (centres unmarked) [IV-27, N^1-[1-(4-nitrophenyl)ethyl]-N^4-(4-methylphenacyl)piperazine], for which the inhibition in vivo at 20 mg/kg was found to be 57% in the data set on Kunming mice [1] (Mus musculus) and 74% with Kunming mice [2]. The figures for the responders at 20 mg/kg with rat [3] (setting [7]) and in the data set on rat [3] (setting [8]) were 20% and 0%, respectively. Besides, the Excitement result with rat [3] (i.p. 20 mg/Kg) is reported as “no”. Also, the Sedation entry with rat [3] (i.p. 20 mg/Kg, grade symbols, key not given) was “no”. The change in vivo at 20 mg/kg with rat [4] stood at 9.2%. The “After (s) tail flick time” value in the data set with rat [4] was determined as 9.37 s.

As to `CC(c1ccccc1)N1CCN(CC(=O)c2ccccc2)CC1` (centres unmarked) [IV-37, N^1-(1-phenylethyl)-N^4-phenacyl piperazine], the inhibition in vivo at 20 mg/kg came to 100% in the data set with Kunming mice [1] (Mus musculus) and 90.1% with Kunming mice [2]. For the same molecule, the responders at 20 mg/kg in the data set with rat [3] (setting [7]) and in the data set on rat [3] (setting [8]) was 100% throughout. In the data set with rat [4], the change in vivo at 20 mg/kg came out at 25%. Also, the “After (s) tail flick time” value in the data set on rat [4] was determined as 10.54 s.

Turning to `Cc1ccc(C(=O)CN2CCN(C(C)c3ccccc3)CC2)cc1` (centres unmarked) [IV-40, N^1-(1-phenylethyl)-N^4-(4-methylphenacyl)piperazine], in the data set on rat [3] (setting [7]), the responders at 20 mg/kg was 10%. The responders at 20 mg/kg in the data set on rat [3] (setting [8]) is 10%. For the same molecule, in the data set on rat [4], the change in vivo at 20 mg/kg stood at 8% and the “After (s) tail flick time” value amounted to 7.88 s.

Turning to `CC(=O)Nc1ccc(O)cc1` [Paracetamol, reference compound], the ED50 is 132 mg/kg with Kunming mice [1] (Mus musculus, po, Mice, Acetic acid Writhing, read-out: Analgesia ED50); 4320 mg/kg with rat [3] (Rattus norvegicus, po, read-out: Analgesia ED50); over 5000 mg/kg in the data set on rat [6].
